We go through 15 compounds from ChEMBL document CHEMBL4382242, “Novel racemosin B derivatives as new therapeutic agents for aggressive breast cancer” (Bioorg Med Chem, 2018).

Assay [1] deals with MDA-MB-231. The assay can be described thus: Growth inhibition of human MDA-MB-231 cells after 72 hrs by MTT assay. In kind it is functional, cell-based. Particulars: MDA-MB-231, 72 h.
Another assay concerns MCF7. The assay can be described thus: Growth inhibition of human MCF7 cells after 72 hrs by MTT assay. The format is functional, cell-based. As to conditions: MCF7, 72 h.
In assay [2] the test system is MDA-MB-231. The assay can be described thus: Induction of apoptosis in human MDA-MB-231 cells assessed as increase in Bax protein expression at 5 uM after 16 hrs by Western blot analysis. The format is functional, cell-based. Background: Immunoblotting shows a protein as a band on a membrane.
Assay [3] concerns MDA-MB-231. As to the kind of experiment: Induction of apoptosis in human MDA-MB-231 cells assessed as live cells at 5 uM after 24 hrs by Annexin V-FITC/propidium iodide staining based flow cytometry (reference value: 90.8%). In kind it is functional.
The test system of assay [4] is MDA-MB-231. The assay can be described thus: Inhibition of autophagy in human MDA-MB-231 cells assessed as increase in p62 protein expression at 5 uM after 16 hrs by Western blot analysis. The format is functional, cell-based.
The nature of assay [5]: Growth inhibition of human WM9 cells after 72 hrs by MTT assay. As to conditions: WM9, 72 h. The format is functional. A general note: Tetrazolium assays rely on reduction of a dye to a coloured formazan, in cell work by metabolically active cells.
In assay [6] the test system is MDA-MB-231. As to the kind of experiment: Cell cycle arrest in human MDA-MB-231 cells assessed as accumulation at G2/M phase at 5 uM after 24 hrs by propidium iodide staining based flow cytometry (reference value: 18.5%). The format is functional.
The test system of assay [7] is MDA-MB-231. As to the kind of experiment: Induction of apoptosis in human MDA-MB-231 cells assessed as early apoptotic cells at 5 uM after 24 hrs by Annexin V-FITC/propidium iodide staining based flow cytometry (reference value: 3.7%). In kind it is functional.
The test system of assay [8] is MDA-MB-231. As to the kind of experiment: Induction of apoptosis in human MDA-MB-231 cells assessed as late apoptotic cells at 5 uM after 24 hrs by Annexin V-FITC/propidium iodide staining based flow cytometry (reference value: 4.8%). The format is functional.
Assay [9] relates to MDA-MB-231. As to the kind of experiment: Induction of apoptosis in human MDA-MB-231 cells assessed as late apoptotic cells at 5 uM after 48 hrs by Annexin V-FITC/propidium iodide staining based flow cytometry (reference value: 6.5%). In kind it is functional. For orientation: A flow cytometer gives signals particle by particle.
The target of assay [10] is Serine/threonine-protein kinase mTOR (Homo sapiens) (UniProt P42345). As to the kind of experiment: Inhibition of mTOR phosphorylation in human MDA-MB-231 cells at 5 uM after 16 hrs by Western blot analysis. In kind it is cell-based.
Assay [11] is described as follows: Growth inhibition of human WM35 cells after 72 hrs by MTT assay. In kind it is functional. Particulars: WM35, 72 h.
Another assay deals with K562. As to the kind of experiment: Growth inhibition of human K562 cells after 72 hrs by MTT assay. In kind it is functional, cell-based. Particulars: K562, 72 h.
In the next assay the test system is 4T1. The assay can be described thus: Growth inhibition of mouse 4T1 cells after 72 hrs by MTT assay. In kind it is functional, cell-based. Particulars: 4T1, 72 h.
Assay [12] relates to MDA-MB-231. As to the kind of experiment: Cell cycle arrest in human MDA-MB-231 cells assessed as accumulation at G2/M phase at 5 uM after 48 hrs by propidium iodide staining based flow cytometry (reference value: 17.79%). In kind it is functional.
Assay [13] concerns MDA-MB-231. As to the kind of experiment: Induction of apoptosis in human MDA-MB-231 cells assessed as early apoptotic cells at 5 uM after 48 hrs by Annexin V-FITC/propidium iodide staining based flow cytometry (reference value: 5.3%). The format is functional.
Assay [14] relates to MDA-MB-231. The assay can be described thus: Cell cycle arrest in human MDA-MB-231 cells assessed as accumulation at S phase at 5 uM after 48 hrs by propidium iodide staining based flow cytometry (reference value: 31.71%). The format is functional.
Assay [15] deals with MDA-MB-231. As to the kind of experiment: Cell cycle arrest in human MDA-MB-231 cells assessed as accumulation at G1 phase at 5 uM after 24 hrs by propidium iodide staining based flow cytometry (reference value: 47.9%). In kind it is functional.
The subject of another assay is HEL. As to the kind of experiment: Growth inhibition of HEL cells after 72 hrs by MTT assay. As to conditions: Homo sapiens. In kind it is functional, cell-based.
Assay [16] deals with MDA-MB-231. The assay can be described thus: Cell cycle arrest in human MDA-MB-231 cells assessed as accumulation at G1 phase at 5 uM after 48 hrs by propidium iodide staining based flow cytometry (reference value: 3.19%). In kind it is functional.
Assay [17] concerns MDA-MB-231. As to the kind of experiment: Induction of apoptosis in human MDA-MB-231 cells assessed as live cells at 5 uM after 48 hrs by Annexin V-FITC/propidium iodide staining based flow cytometry (reference value: 87.6%). The format is functional.
Assay [18] concerns MDA-MB-231. The assay can be described thus: Growth inhibition of human MDA-MB-231 cells at 1 to 5 uM after 72 hrs by MTT assay. In kind it is functional, cell-based.
Assay [19] has as its system MDA-MB-231. The assay can be described thus: Induction of apoptosis in human MDA-MB-231 cells assessed as increase in Cyclin-B1 protein expression at 5 uM after 16 hrs by Western blot analysis. In kind it is functional, cell-based.
Assay [20] relates to MDA-MB-231. The assay can be described thus: Inhibition of autophagy in human MDA-MB-231 cells assessed as LC3-2 accumulation at 5 uM after 16 hrs by DAPI staining based immunofluorescence assay. The format is functional, cell-based.
The subject of assay [21] is MDA-MB-231. The assay can be described thus: Cell cycle arrest in human MDA-MB-231 cells assessed as accumulation at S phase at 5 uM after 24 hrs by propidium iodide staining based flow cytometry (reference value: 29.76%). The format is functional.
Assay [22] concerns MDA-MB-231. As to the kind of experiment: Induction of apoptosis in human MDA-MB-231 cells assessed as necrotic cells at 5 uM after 48 hrs by Annexin V-FITC/propidium iodide staining based flow cytometry (reference value: 0.7%). The format is functional.
The test system of assay [23] is MDA-MB-231. As to the kind of experiment: Induction of morphological changes in human MDA-MB-231 cells assessed as cell detachment at 5 uM after 24 hrs. In kind it is functional, cell-based.
Assay [24] has as its system MDA-MB-231. As to the kind of experiment: Induction of apoptosis in human MDA-MB-231 cells assessed as decrease in Bcl2 protein expression at 5 uM after 16 hrs by Western blot analysis. The format is functional, cell-based.
Assay [25] deals with MDA-MB-231. As to the kind of experiment: Induction of apoptosis in human MDA-MB-231 cells assessed as necrotic cells at 5 uM after 24 hrs by Annexin V-FITC/propidium iodide staining based flow cytometry (reference value: 0.7%). In kind it is functional.

Calls of active or inactive are those of the source. The rule behind the calls is not given here.

For orientation: IC50 means the concentration that gives 50% inhibition. Higher therefore signals weaker potency in that assay.

As to `CC(C)N(CCNC(=O)c1cc2c3ccccc3[nH]c2c2c1[nH]c1ccccc12)C(C)C`, the half-inhibitory concentration (IC50) in the assay with MDA-MB-231 [1] was 1.72 µM; with MCF7, 3.12 µM.

Turning to `CCN1CCCC1CNC(=O)c1cc2c3ccccc3[nH]c2c2c1[nH]c1ccccc12` (configuration not stated), the IC50 with MDA-MB-231 [1] was 3.53 µM; in the assay with MCF7 it was 5.83 µM.

Turning to `CN(C)CCNC(=O)c1cc2c3ccccc3[nH]c2c2c1[nH]c1cc(Cl)ccc12`, the IC50 with MDA-MB-231 [1] was found to be 4.51 µM; in the assay with MCF7, 8.03 µM.

As to `COc1cccc2c1C(=O)c1c(O)c3c(c(O)c1C2=O)C[C@@](O)(C(=O)CO)C[C@@H]3O[C@H]1C[C@H](N)[C@H](O)[C@H](C)O1` [DOXORUBICIN], the 50% inhibitory concentration (IC50) in the assay on MDA-MB-231 [1] amounted to 0.25 µM; in the assay on MCF7, 0.42 µM.

For the compound `COC(=O)c1cc2c3ccccc3[nH]c2c2c1[nH]c1ccc(Br)cc12`, the IC50 with MDA-MB-231 [1] and in the assay with MCF7 was greater than 40 µM throughout.

In the case of `COC(=O)c1cc2c3ccccc3[nH]c2c2c1[nH]c1ccccc12`, the IC50 in the assay on MDA-MB-231 [1] and in the assay on MCF7 was greater than 40 µM throughout.

For `O=C(NCCN1CCOCC1)c1cc2c3ccccc3[nH]c2c2c1[nH]c1ccccc12`, the results for the IC50 with MDA-MB-231 [1] and in the assay on MCF7 were 4.4 µM and 7.76 µM, respectively.

On to `O=C(NCCc1c[nH]cn1)c1cc2c3ccccc3[nH]c2c2c1[nH]c1ccccc12`, for which the values for the IC50 in the assay on MDA-MB-231 [1] and in the assay with MCF7 were 4.16 µM and 4.86 µM, respectively.

For the compound `O=C(NCCN1CCCC1)c1cc2c3ccccc3[nH]c2c2c1[nH]c1ccccc12`, the half-maximal inhibitory concentration (IC50) in the assay with MDA-MB-231 [1] amounted to 1.41 µM; with MCF7, 3.11 µM.

For the compound `CN(C)c1ccc(NC(=O)c2cc3c4ccccc4[nH]c3c3c2[nH]c2ccccc23)cc1`, the IC50 with MDA-MB-231 [1] came out at 7.79 µM; in the assay with MCF7 it was 16.4 µM.

`COc1cc([C@@H]2c3cc4c(cc3[C@@H](O[C@@H]3O[C@@H]5CO[C@@H](C)O[C@H]5[C@H](O)[C@H]3O)[C@H]3COC(=O)[C@H]23)OCO4)cc(OC)c1O` [ETOPOSIDE]: the outcome in the assay with MDA-MB-231 [2], in the assay on MDA-MB-231 [19], in the assay with MDA-MB-231 [23] and with MDA-MB-231 [24] was Active. Moreover, the Activity in the assay on MDA-MB-231 [3] is listed as 90.7%; with MDA-MB-231 [6], 63.98%; in the assay on MDA-MB-231 [7], 4.6%; in the assay with MDA-MB-231 [8] it was 4%; with MDA-MB-231 [9] it was 8.8%; in the assay with MDA-MB-231 [12], 70.43%. Moreover, the Activity in the assay on MDA-MB-231 [13] came out at 5.5%; in the assay on MDA-MB-231 [14], 15.48%; in the assay on MDA-MB-231 [15], 7.59%; with MDA-MB-231 [16], 8.57%; in the assay with MDA-MB-231 [17], 75.5%; with MDA-MB-231 [21], 19.24%. Moreover, the Activity turned out to be 10.1% in the assay with MDA-MB-231 [22] and 0.7% with MDA-MB-231 [25]. For the same compound, the inhibition result (in the assay on MDA-MB-231 [4]; in [10]; with MDA-MB-231 [20]) was “inactive” in each case. Also, the IC50 was 1.75 µM in assay [5]; 0.4 µM in assay [11]; 9.23 µM with K562; greater than 10 µM in the assay on 4T1; 0.92 µM with HEL; greater than 10 µM in the assay on MDA-MB-231 [1]. Also, the half-inhibitory concentration (IC50) with MCF7 was greater than 10 µM. Moreover, the “growth inhibition (GI)” value in the assay with MDA-MB-231 [18] is “Active”.

With `CN(C)CCCNC(=O)c1cc2c3ccccc3[nH]c2c2c1[nH]c1ccccc12`, the IC50 amounted to 4.48 µM with MDA-MB-231 [1] and 3.7 µM in the assay with MCF7.

In the case of `CN(C)CCNC(=O)c1cc2c3ccccc3[nH]c2c2c1[nH]c1ccccc12`, the values for the IC50 with MDA-MB-231 [1] and in the assay with MCF7 were 1.43 µM and 3.39 µM, respectively.

Regarding `O=C(NCc1cccnc1)c1cc2c3ccccc3[nH]c2c2c1[nH]c1ccccc12`, the values for the IC50 in the assay on MDA-MB-231 [1] and in the assay on MCF7 were 6.01 µM and 9.8 µM, respectively.

`O=C(NCCN1CCCC1)c1cc2c3ccccc3[nH]c2c2c1[nH]c1ccc(Br)cc12`: the IC50 was 1.82 µM in the assay with MDA-MB-231 [1] and 1.3 µM in the assay with MCF7.
